14 compounds from patent US20150175599A1, “FAAH Inhibitors” (Ironwood Pharmaceuticals, Inc., priority 2010, published 2015) can be followed below.

One data set has as its target T1, hERG channel (Homo sapiens, UniProt Q12809).
T1 construct: expressed in transfected cells; host or cells: CHO (hERG-CHO), under Geneticin selection
Briefly: hERG channel inhibition, automated patch clamp (IonWorks HT, hERG-CHO). The class given is cell-based. The conditions noted are these: CHO cells expressing hERG, 600 s incubation; for inhibition at 600 s, 1 µM: 1 μM compound, read-out: hERG Channel Inhibition % (at 1 μM), vehicle-subtracted values; for inhibition at 600 s, 10 µM: 10 μM compound, read-out: hERG Channel Inhibition % (at 10 μM), vehicle-subtracted values. In short, it runs like this: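 hERG-CHO cells held at 30 °C for 48 h before IonWorks HT patch clamp: from −80 mV to +40 for 2 s, then −50 mV for 2 s tail, repeated three times, before and after 600 s compound exposure. Third-pulse post/pre tail amplitude ratio gave percent inhibition; cells with seal <50 MOhm or tail <250 pA excluded.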
(In general: Block of hERG is tested as a sign of cardiac risk.)

Data set [1] in a line: Pharmacokinetic study, plasma level 2 hours after oral dosing in rats. The data set is classed as in vivo. On the procedure: Pharmacokinetic studies were conducted to determine absorption and distribution profiles of the disclosed compounds which were orally administered to rats.
Compounds were formulated in a 1% DMA/99% Vitamin E TPGS vehicle. Prepared compounds were dosed via oral gavage (PO). Following the appropriate pretreatment time of 2 hours, rats were anesthetized with isoflurane gas. Blood was collected into tubes containing EDTA via retro-orbital eye bleed. Whole blood was spun in a micro-centrifuge at approximately 13,000 rpm for 5 minutes at room temperature. Separated plasma was subsequently aliquoted into eppendorf tubes. Samples were stored at −80° C. until prepped for analysis.
Plasma samples were thawed and the required amount of plasma for standards, blanks and dilutions were made. The dilutions were prepared before plating. Preparation of crash solution included cold acetonitrile+0.1% formic acid and 25 ng/mL of a FAAH inhibitor used as internal standard. solvent standards of the FAAH inhibitor being studied were preparation at 10, 30, 100, 300, 1000, 3000, 10000, 30000, 100000, and 300000 ng/mL in DMSO. Then a plasma standard curve was generated from the solvent standards (final concentrations of standards in plasma were: 0.1, 0.3, 1, 3, 10, 30, 100, 300, 1000, 3000 ng/mL). 50 μL of each plasma sample/dilution, standard, or blank was transferred into 96-well plates. To each well, 200 μL of cold crash solution was added. The plate was covered and gently vortexed. The plate was centrifuged at 3500 rpm, 4° C. for 10 min. 200 μL of each supernatant was transferred into new plates. The plates were dried under nitrogen in a TurboVap at 55° C. The sample in each well was re-suspended with 100 μL of 30% acetonitrile, covered and vortexed gently. The well solutions were analyzed by the LC/MS/MS conditions and specifications below.
HPLC column was a Clipeus C8, 2.1×30 mm, 5 μm, with Basic 8 guard column using 20 μL injections. Mobile phase used was mobile phase A: 0.1% Formic Acid in water and mobile phase B: 0.1% Formic Acid in 85:10:5 ACN:IPA:H2O. The flow rate for the run was 0.5 mL/min and the gradient for the 4 minute total run time was: 0.0 minutes

The target of a further data set is T2, FAAH (Homo sapiens, UniProt O00519).
T2 construct: Reactions were initiated by adding 12.5 μg of brain microsome; tissue ABS, Inc; host or cells: human brain cerebral cortex, membrane/microsome fraction pooled from 3 donors
T2 sequence (O00519 1-579): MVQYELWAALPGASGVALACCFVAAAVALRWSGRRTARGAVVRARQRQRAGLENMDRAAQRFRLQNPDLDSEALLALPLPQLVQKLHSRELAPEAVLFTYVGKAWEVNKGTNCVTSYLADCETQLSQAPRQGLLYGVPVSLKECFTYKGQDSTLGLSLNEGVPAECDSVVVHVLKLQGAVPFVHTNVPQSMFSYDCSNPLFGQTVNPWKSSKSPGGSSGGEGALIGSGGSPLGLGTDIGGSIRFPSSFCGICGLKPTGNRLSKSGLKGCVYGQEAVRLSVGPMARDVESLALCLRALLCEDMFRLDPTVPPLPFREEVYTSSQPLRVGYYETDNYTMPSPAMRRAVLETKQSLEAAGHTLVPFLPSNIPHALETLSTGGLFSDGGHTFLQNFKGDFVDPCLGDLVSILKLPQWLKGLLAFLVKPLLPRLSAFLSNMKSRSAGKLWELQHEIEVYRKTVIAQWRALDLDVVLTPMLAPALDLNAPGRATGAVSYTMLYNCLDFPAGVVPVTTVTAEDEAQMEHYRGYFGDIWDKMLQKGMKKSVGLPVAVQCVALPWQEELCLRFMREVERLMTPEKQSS
Put plainly: FAAH inhibition, human brain membrane homogenate assay. The class given is biochemical. The conditions noted are these: human brain homogenate; average activity; read-out: Human brain Extract FAAH IC50.

T1 sequence (Q12809 whole entry): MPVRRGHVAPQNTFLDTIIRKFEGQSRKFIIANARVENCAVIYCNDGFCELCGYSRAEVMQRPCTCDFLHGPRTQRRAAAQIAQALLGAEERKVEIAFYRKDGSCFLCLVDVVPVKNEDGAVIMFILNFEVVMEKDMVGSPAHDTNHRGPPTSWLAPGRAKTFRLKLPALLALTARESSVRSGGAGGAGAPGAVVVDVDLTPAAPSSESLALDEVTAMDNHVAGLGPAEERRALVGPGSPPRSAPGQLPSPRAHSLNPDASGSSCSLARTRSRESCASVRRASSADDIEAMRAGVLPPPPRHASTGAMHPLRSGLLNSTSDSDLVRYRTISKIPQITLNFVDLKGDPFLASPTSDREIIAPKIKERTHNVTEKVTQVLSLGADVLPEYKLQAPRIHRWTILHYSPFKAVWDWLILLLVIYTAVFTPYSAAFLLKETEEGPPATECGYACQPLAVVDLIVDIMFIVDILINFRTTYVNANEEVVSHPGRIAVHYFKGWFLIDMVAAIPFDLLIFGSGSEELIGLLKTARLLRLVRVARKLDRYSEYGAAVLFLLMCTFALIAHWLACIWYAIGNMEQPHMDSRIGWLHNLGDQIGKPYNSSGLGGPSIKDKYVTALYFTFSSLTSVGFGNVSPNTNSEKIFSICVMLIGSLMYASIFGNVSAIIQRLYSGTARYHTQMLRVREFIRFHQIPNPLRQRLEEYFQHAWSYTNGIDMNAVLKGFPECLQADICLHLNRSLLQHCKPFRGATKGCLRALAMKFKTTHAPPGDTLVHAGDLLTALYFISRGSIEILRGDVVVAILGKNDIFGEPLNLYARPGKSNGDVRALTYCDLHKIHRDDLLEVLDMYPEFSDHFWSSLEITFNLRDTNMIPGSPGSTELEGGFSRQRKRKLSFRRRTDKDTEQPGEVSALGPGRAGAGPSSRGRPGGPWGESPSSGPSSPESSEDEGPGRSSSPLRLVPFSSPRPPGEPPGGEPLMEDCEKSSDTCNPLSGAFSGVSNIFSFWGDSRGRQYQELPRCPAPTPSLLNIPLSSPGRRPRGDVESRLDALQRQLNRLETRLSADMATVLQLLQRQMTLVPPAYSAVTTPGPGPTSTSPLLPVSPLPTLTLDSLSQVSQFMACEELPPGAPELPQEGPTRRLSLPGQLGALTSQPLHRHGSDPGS

With `COc1cc(NC(=O)C(=O)c2c(C)n(Cc3ccc(Cl)cc3)c3ccc(OC(F)(F)F)cc23)ccn1` [Compound 23, 2-(1-(4-chlorobenzyl)-2-methyl-5-(trifluoromethoxy)-1H-indol-3-yl)-N-(2-methoxypyridin-4-yl)-2-oxoacetamide], at hERG channel, the inhibition – broadly, the share of the control response that was lost under treatment – at 600 s, 1 µM was less than 25% and the inhibition at 600 s, 10 µM is 50 to 75%. The “2 hr plasma level-ng/mL (rat, 10 mg/kg PO, 2 hr)” value (from here on “2 hr plasma level-ng/mL”) in data set [1] was “C (C = between 100 nM and 1000 nM)”. For the same compound, the IC50 – broadly, the midpoint of a concentration-inhibition curve – on FAAH was less than 100 nM.

`COc1cc(NC(=O)C(=O)c2c(C)n(Cc3ccc(Cl)cc3)c3ccncc23)ccn1` [Compound 37, 2-(1-(4-chlorobenzyl)-2-methyl-1H-pyrrolo[3,2-c]pyridin-3-yl)-N-(2-methoxypyridin-4-yl)-2-oxoacetamide]: at hERG channel, the inhibition at 600 s, 1 µM fell in the range of 25 to 50% and the inhibition at 600 s, 10 µM was in the range of 50 to 75%. For the same compound, the “2 hr plasma level-ng/mL” value in data set [1] is “C (C = between 100 nM and 1000 nM)”. Besides, at FAAH, the half-inhibitory concentration (IC50) is less than 100 nM.

`COc1cc(NC(=O)C(=O)c2c(C)n(Cc3ccc(Cl)cn3)c3ccc(Cl)cc23)ccn1` [Compound 63, 2-(5-chloro-1-((5-chloropyridin-2-yl)methyl)-2-methyl-1H-indol-3-yl)-N-(2-methoxypyridin-4-yl)-2-oxoacetamide]: at hERG channel, the inhibition at 600 s, 1 µM is less than 25% and the inhibition at 600 s, 10 µM fell in the range of 50 to 75%. The “2 hr plasma level-ng/mL” value in data set [1] was “C (C = between 100 nM and 1000 nM)”. Further, the 50% inhibitory concentration (IC50) on FAAH was less than 100 nM.

As for `COc1cnc2c(c1)c(C(=O)C(=O)Nc1ccnc(OC)c1)c(C)n2Cc1ccc(Cl)cc1Cl` [Compound 42, 2-(1-(2,4-dichlorobenzyl)-5-methoxy-2-methyl-1H-pyrrolo[2,3-b]pyridin-3-yl)-N-(2-methoxypyridin-4-yl)-2-oxoacetamide], on hERG channel, the inhibition at 600 s, 1 µM was less than 25% and the inhibition at 600 s, 10 µM fell in the range of 50 to 75%. Moreover, the “2 hr plasma level-ng/mL” value in data set [1] was “C (C = between 100 nM and 1000 nM)”. In addition, the concentration for half-maximal inhibition (IC50) on FAAH was less than 100 nM.

Consider `COc1ccc(Cn2c(C)c(C(=O)C(=O)Nc3ccnc(OC)c3)c3cc(C)ccc32)nc1` [Compound 69, 2-(1-((5-methoxypyridin-2-yl)methyl)-2,5-dimethyl-1H-indol-3-yl)-N-(2-methoxypyridin-4-yl)-2-oxoacetamide], for which, at hERG channel, the inhibition at 600 s, 1 µM is less than 25% and the inhibition at 600 s, 10 µM was less than 25%. Also, the “2 hr plasma level-ng/mL” value in data set [1] was “C (C = between 100 nM and 1000 nM)”. In addition, the IC50 on FAAH was less than 100 nM.

In the case of `COc1cc(NC(=O)C(=O)c2c(C)n(Cc3ccc(Cl)cc3)c3cc(Cl)c(OC)cc23)ccn1` [Compound 55, 2-(6-chloro-1-(4-chlorobenzyl)-5-methoxy-2-methyl-1H-indol-3-yl)-N-(2-methoxypyridin-4-yl)-2-oxoacetamide], at hERG channel, the inhibition at 600 s, 1 µM is less than 25% and the inhibition at 600 s, 10 µM is less than 25%. Besides, in data set [1], the “2 hr plasma level-ng/mL” value is “C (C = between 100 nM and 1000 nM)”. Also, the concentration for half-maximal inhibition (IC50) at FAAH is less than 100 nM.

As for `COc1cc(NC(=O)C(=O)c2c(C)n(Cc3ncc(Cl)cc3Cl)c3ccccc23)ccn1` [Compound 31, 2-(1-((3,5-dichloropyridin-2-yl)methyl)-2-methyl-1H-indol-3-yl)-N-(2-methoxypyridin-4-yl)-2-oxoacetamide], at hERG channel, the inhibition at 600 s, 1 µM was less than 25% and the inhibition at 600 s, 10 µM was less than 25%. The “2 hr plasma level-ng/mL” value in data set [1] is listed as “D (D = greater than 1000 nM)”. The IC50 on FAAH was less than 100 nM.

Turning to `COc1cc(NC(=O)C(=O)c2c(C)n(Cc3ccc(Cl)cc3)c3ccc([N+](=O)[O-])cc23)ccn1` [Compound 19, 2-(1-(4-chlorobenzyl)-2-methyl-5-nitro-1H-indol-3-yl)-N-(2-methoxypyridin-4-yl)-2-oxoacetamide], at hERG channel, the inhibition at 600 s, 1 µM was less than 25% and the inhibition at 600 s, 10 µM was in the range of 25 to 50%. For the same compound, the “2 hr plasma level-ng/mL” value in data set [1] is “C (C = between 100 nM and 1000 nM)”. At FAAH, the half-maximal inhibitory concentration (IC50) is less than 100 nM.

Regarding `COCc1ccc2c(c1)c(C(=O)C(=O)Nc1ccnc(OC)c1)c(C)n2Cc1ccc(Cl)cc1` [Compound 11, 2-(1-(4-chlorobenzyl)-5-(methoxymethyl)-2-methyl-1H-indol-3-yl)-N-(2-methoxypyridin-4-yl)-2-oxoacetamide], on hERG channel, the inhibition at 600 s, 1 µM is less than 25% and the inhibition at 600 s, 10 µM fell in the range of 25 to 50%. Also, the “2 hr plasma level-ng/mL” value in data set [1] is “C (C = between 100 nM and 1000 nM)”. In addition, on FAAH, the IC50 was less than 100 nM.

Turning to `COc1cc(NC(=O)C(=O)c2c(C)n(Cc3ccc(Cl)cn3)c3cc(F)c(OC)cc23)ccn1` [Compound 64, 2-(1-((5-chloropyridin-2-yl)methyl)-6-fluoro-5-methoxy-2-methyl-1H-indol-3-yl)-N-(2-methoxypyridin-4-yl)-2-oxoacetamide], at hERG channel, the inhibition at 600 s, 1 µM was less than 25% and the inhibition at 600 s, 10 µM lay within 25 to 50%. Besides, in data set [1], the “2 hr plasma level-ng/mL” value was “C (C = between 100 nM and 1000 nM)”. Further, the concentration for half-maximal inhibition (IC50) at FAAH was less than 100 nM.

Regarding `COc1cnc2c(c1)c(C(=O)C(=O)Nc1ccnc(OC)c1)c(C)n2Cc1ccc(Cl)cn1` [Compound 41, 2-(1-((5-chloropyridin-2-yl)methyl)-5-methoxy-2-methyl-1H-pyrrolo[2,3-b]pyridin-3-yl)-N-(2-methoxypyridin-4-yl)-2-oxoacetamide], at hERG channel, the inhibition at 600 s, 1 µM was less than 25% and the inhibition at 600 s, 10 µM lay within 25 to 50%. The “2 hr plasma level-ng/mL” value in data set [1] was “D (D = greater than 1000 nM)”. The IC50 at FAAH is less than 100 nM.

With `COc1ccc(Cn2c(C)c(C(=O)C(=O)Nc3ccnc(OC)c3)c3cc(OC)ccc32)nc1` [Compound 43, 2-(5-methoxy-1-((5-methoxypyridin-2-yl)methyl)-2-methyl-1H-indol-3-yl)-N-(2-methoxypyridin-4-yl)-2-oxoacetamide], on hERG channel, the inhibition at 600 s, 1 µM is less than 25% and the inhibition at 600 s, 10 µM is less than 25%. Moreover, the “2 hr plasma level-ng/mL” value in data set [1] is recorded as “D (D = greater than 1000 nM)”. Further, on FAAH, the 50% inhibitory concentration (IC50) fell in the range of 100 to 1000 nM.

As for `COc1cc(NC(=O)C(=O)c2c(C)n(Cc3ccc(Cl)cc3)c3cc(F)c(OC)cc23)ccn1` [Compound 72, 2-(1-(4-chlorobenzyl)-6-fluoro-5-methoxy-2-methyl-1H-indol-3-yl)-N-(2-methoxypyridin-4-yl)-2-oxoacetamide], on hERG channel, the inhibition at 600 s, 1 µM was less than 25% and the inhibition at 600 s, 10 µM is 25 to 50%. Moreover, the “2 hr plasma level-ng/mL” value in data set [1] was “C (C = between 100 nM and 1000 nM)”. Also, the IC50 on FAAH is less than 100 nM.

With `COc1cc(NC(=O)C(=O)c2c(C)n(Cc3ccc(Cl)cn3)c3ccccc23)ccn1` [Compound 68, 2-(1-((5-chloropyridin-2-yl)methyl)-2-methyl-1H-indol-3-yl)-N-(2-methoxypyridin-4-yl)-2-oxoacetamide], on hERG channel, the inhibition at 600 s, 1 µM is less than 25% and the inhibition at 600 s, 10 µM was less than 25%. For the same compound, the “2 hr plasma level-ng/mL” value in data set [1] was “D (D = greater than 1000 nM)”. On FAAH, the concentration for half-maximal inhibition (IC50) was less than 100 nM.
